Measured values reported in patent publication US20150099800A1, “NOVEL LIPASE INHIBITORS, REPORTER SUBSTRATES AND USES THEREOF” (Northeastern University, priority 2012, published 2015).
Read-outs that look alike come from different tables or passages of the source.

Columns and labels:
[1] = Stability of FRET reporter substrates to uncatalyzed hydrolysis; type: physicochemical
Description: (§1) A convenient in vitro fluorometric esterase assay utilizing the BioTek Instruments Synergy™ HT Multi-Mode Microplate 96-well reader was developed that measured nanomolar concentrations of fluorescent reaction product.

hDAGLα [2] = biological target: T1, hDAGLα (Homo sapiens, UniProt Q9Y4D2); experiment: Evaluation of FRET reporter substrates for enzymatic hydrolysis; type: biochemical; design: V5; His; expressed in transfected cells; host or cells: HEK293T, transient; crude cell lysate or membrane preparation
T1 sequence (Q9Y4D2 1-1042): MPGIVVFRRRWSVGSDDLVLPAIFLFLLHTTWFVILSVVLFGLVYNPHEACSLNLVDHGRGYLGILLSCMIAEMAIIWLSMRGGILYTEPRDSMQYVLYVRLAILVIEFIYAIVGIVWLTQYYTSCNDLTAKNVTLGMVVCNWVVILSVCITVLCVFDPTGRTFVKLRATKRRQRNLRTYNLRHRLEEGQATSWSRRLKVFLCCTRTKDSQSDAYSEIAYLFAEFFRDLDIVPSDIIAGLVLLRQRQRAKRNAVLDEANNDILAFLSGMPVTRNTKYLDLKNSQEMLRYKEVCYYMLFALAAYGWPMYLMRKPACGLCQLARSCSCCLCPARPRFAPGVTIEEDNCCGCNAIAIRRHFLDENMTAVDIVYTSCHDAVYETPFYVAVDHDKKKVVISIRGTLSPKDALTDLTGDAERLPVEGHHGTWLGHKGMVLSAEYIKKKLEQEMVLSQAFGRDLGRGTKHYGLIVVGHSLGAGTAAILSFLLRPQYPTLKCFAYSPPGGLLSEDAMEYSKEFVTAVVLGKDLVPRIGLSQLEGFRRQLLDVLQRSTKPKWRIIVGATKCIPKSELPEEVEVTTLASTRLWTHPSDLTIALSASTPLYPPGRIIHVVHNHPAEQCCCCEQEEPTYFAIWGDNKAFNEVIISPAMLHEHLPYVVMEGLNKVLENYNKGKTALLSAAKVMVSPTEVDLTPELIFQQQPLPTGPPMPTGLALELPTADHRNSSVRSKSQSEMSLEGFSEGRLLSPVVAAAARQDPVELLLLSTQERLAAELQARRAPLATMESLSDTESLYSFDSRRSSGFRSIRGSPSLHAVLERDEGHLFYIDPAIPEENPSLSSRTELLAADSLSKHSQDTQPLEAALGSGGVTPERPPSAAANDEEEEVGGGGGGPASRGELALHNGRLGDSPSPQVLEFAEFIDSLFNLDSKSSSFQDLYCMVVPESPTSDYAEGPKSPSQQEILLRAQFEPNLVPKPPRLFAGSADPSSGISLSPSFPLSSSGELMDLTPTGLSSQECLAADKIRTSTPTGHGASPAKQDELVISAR
Description: Reporter compounds as substrates for hDAGLα activity with HEK293T cell lysates in the presence of 10% DMSO are shown. A) Pyrenyl analogs (17)-(19), (21), and (22) (EX 320 nm, EM 400 nm). B) NBD analog (20) (EX 485 nm, EM 535 nm).
as §1

[3] = test system: Lipoprotein Lipase (Bacterial); type: biochemical, Pseudomonas sp.
[4] = biological target: T2, Pancreatic Lipase (Porcine) (Sus scrofa, UniProt P00591); type: biochemical; settings: read-out: Pancreatic Lipase (Porcine) inhibition at 10 μM (%)
T2 construct: purchased Sigma L3126
T2 sequence (P00591 1-450): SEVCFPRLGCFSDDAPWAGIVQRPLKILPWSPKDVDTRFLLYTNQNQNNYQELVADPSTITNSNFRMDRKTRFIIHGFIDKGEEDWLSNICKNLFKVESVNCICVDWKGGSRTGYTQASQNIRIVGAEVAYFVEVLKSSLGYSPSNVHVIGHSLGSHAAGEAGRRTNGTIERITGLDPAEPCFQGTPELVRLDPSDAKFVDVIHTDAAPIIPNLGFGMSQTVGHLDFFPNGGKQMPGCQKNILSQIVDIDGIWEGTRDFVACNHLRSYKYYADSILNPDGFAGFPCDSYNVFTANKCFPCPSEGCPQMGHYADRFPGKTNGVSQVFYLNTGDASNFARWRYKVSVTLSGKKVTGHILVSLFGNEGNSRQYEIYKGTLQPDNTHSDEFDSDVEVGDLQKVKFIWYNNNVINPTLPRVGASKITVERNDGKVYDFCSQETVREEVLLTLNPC

cannabinoid receptors = settings: cited from earlier work
MAGL [5] = biological target: T3, MAGL (Homo sapiens, UniProt Q99685); settings: cited from earlier work
T3 sequence (Q99685 1-303): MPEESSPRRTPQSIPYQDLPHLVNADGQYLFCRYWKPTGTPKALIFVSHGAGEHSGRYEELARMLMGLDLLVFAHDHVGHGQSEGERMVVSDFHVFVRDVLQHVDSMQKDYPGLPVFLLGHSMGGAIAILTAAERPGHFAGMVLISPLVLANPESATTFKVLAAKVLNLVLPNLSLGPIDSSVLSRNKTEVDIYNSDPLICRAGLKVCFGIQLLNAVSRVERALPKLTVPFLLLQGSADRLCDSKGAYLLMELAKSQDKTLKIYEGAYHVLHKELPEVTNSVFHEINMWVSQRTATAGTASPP

hDAGLα [6] = biological target: T1, hDAGLα; experiment: biochemical
mDAGLα = biological target: T4, mDAGLα (Mus musculus, UniProt Q6WQJ1); experiment: Radio-TLC assay with [14C]SAG substrate, mDAGLα; settings: read-out: mDAGLα inhibition at 10000 nM (%)
T4 sequence (Q6WQJ1 1-1044): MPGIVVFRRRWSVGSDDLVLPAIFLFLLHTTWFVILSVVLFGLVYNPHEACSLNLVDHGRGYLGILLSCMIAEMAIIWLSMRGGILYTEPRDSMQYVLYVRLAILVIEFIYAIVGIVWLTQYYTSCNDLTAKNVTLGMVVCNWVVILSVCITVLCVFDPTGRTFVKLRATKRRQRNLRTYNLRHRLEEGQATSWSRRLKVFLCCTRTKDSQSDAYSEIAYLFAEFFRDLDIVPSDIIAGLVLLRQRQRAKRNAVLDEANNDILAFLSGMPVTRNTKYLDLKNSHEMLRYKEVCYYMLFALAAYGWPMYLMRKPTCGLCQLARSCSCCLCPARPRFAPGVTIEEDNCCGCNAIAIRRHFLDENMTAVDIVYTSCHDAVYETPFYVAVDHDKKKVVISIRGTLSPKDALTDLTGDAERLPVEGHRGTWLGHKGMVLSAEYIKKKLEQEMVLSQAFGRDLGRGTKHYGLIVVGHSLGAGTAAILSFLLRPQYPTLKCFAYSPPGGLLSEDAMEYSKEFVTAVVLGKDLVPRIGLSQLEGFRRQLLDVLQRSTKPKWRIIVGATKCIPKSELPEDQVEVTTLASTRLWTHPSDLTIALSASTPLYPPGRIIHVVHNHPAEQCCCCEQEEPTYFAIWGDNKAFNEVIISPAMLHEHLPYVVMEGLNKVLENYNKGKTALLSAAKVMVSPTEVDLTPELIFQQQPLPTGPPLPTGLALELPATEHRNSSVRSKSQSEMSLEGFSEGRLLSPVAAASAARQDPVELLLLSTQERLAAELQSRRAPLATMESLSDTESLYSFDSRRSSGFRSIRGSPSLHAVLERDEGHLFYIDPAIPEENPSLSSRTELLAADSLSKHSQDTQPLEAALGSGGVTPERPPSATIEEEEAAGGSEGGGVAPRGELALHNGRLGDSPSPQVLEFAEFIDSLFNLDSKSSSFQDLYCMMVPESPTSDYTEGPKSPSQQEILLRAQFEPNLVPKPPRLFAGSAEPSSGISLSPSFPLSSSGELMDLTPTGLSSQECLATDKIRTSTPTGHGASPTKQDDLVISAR

MAGL [7] = biological target: T3, MAGL; experiment: hMAGL coumarin substrate fluorescence assay; type: biochemical; design: The N-terminal his-tagged full length human monoacylglycerol lipase used; His (N); made in house; host or cells: E. coli; settings: read-out: hMAGL inhibition at 10 μM (%)

| stability to uncatalyzed hydrolysis at neutral pH [1] | quality as substrate for enzymatic hydrolysis (hDAGLα [2]) | SMILES | Lipoprotein Lipase (Bacterial) inhibition at 10 μM (%) [3] [%] | inhibition at 10 µM [4] [%] | binding to the cannabinoid receptors, previous reports (cannabinoid receptors) | inhibition of MAGL activity reported in the literature (MAGL [5]) | inhibition at 10 µM (hDAGLα [6]; read-out: hDAGLα inhibition at 10 μM detergent free (%), FRET) [%] | inhibition at 10 µM (hDAGLα [6]; read-out: hDAGLα inhibition at 10 μM detergent free (%), FRET, marker °) [%] | inhibition at 10 µM (mDAGLα) [%] | inhibition at 10 µM (MAGL [7]) [%] |
| --- | --- | --- | --- | --- | --- | --- | --- | --- | --- | --- |
| stable | best enzyme substrates | COC[C@@H](COC(=O)CCCCCNc1ccc([N+](=O)[O-])cc1[N+](=O)[O-])OC(=O)CCCc1ccc2ccc3cccc4ccc1c2c34 [Compound 17, 1-((2,4-Dinitrophenyl)amino)hexanoyl-2-pyrenebutanoyl-3-methyl-sn-glycerol] | – | – | – | – | – | – | – | – |
| stable | best enzyme substrates | COC[C@@H](COC(=O)CCCc1ccc2ccc3cccc4ccc1c2c34)OC(=O)CCCCCNc1ccc([N+](=O)[O-])cc1[N+](=O)[O-] [Compound 18, 1-Pyrenebutanoyl-2-((2,4-dinitrophenyl)amino)hexanoyl-3-methyl-sn-glycerol] | – | – | – | – | – | – | – | – |
| – | – | NC(=O)c1cccc(-c2cccc(OC(=O)NC3CCCCC3)c2)c1 [URB597] | 21 | 68 | did not bind | poor inhibitors | 22 | 7 | < 0 | 18 |
